Data taken from PubChem BioAssay (NCI).
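In this assay, cells in 96-well plates receive the compound at five concentrations for 48 hours. Endpoints are linearly interpolated between the surrounding concentrations. GI50 is the concentration that inhibits growth by half. At the TGI there is no net growth.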

Experiments:
Assay in all cases: NCI anticancer screen, dose series, 48 h
OVCAR-8 ovarian = system: OVCAR-8 ovarian
CCRF-CEM leukemia = system: CCRF-CEM leukemia
SK-MEL-28 melanoma = system: SK-MEL-28 melanoma
SF-539 CNS = system: SF-539 CNS
A498 renal = system: A498 renal
SF-295 CNS = system: SF-295 CNS
RXF 393 renal = system: RXF 393 renal
HOP-62 NSCLC = system: HOP-62 NSCLC
NCI-H522 lung = system: NCI-H522 lung
OVCAR-5 ovarian = system: OVCAR-5 ovarian
OVCAR-4 ovarian = system: OVCAR-4 ovarian
OVCAR-3 ovarian = system: OVCAR-3 ovarian
PC-3 prostate = system: PC-3 prostate
K-562 leukemia = system: K-562 leukemia
SK-OV-3 ovarian = system: SK-OV-3 ovarian
EKVX NSCLC = system: EKVX NSCLC
M14 melanoma = system: M14 melanoma
SK-MEL-5 melanoma = system: SK-MEL-5 melanoma
NCI-H460 lung = system: NCI-H460 lung
TK-10 renal = system: TK-10 renal
A549 NSCLC = system: A549 NSCLC
KM12 colon = system: KM12 colon
HCT-116 colon = system: HCT-116 colon
LOX IMVI melanoma = system: LOX IMVI melanoma
IGROV1 ovarian = system: IGROV1 ovarian
UACC-62 melanoma = system: UACC-62 melanoma
MDA-MB-231 breast = system: MDA-MB-231 breast
SF-268 CNS = system: SF-268 CNS
NCI/ADR-RES ovarian = system: NCI/ADR-RES ovarian
UO-31 renal = system: UO-31 renal
HT29 colon = system: HT29 colon
SW-620 colon = system: SW-620 colon
MDA-MB-435 = system: MDA-MB-435
HOP-92 NSCLC = system: HOP-92 NSCLC
SR leukemia = system: SR leukemia
HL-60(TB) leukemia = system: HL-60(TB) leukemia
UACC-257 melanoma = system: UACC-257 melanoma
MOLT-4 leukemia = system: MOLT-4 leukemia
COLO 205 colon = system: COLO 205 colon
NCI-H23 lung = system: NCI-H23 lung
SNB-19 CNS = system: SNB-19 CNS
MALME-3M melanoma = system: MALME-3M melanoma
HS 578T breast = system: HS 578T breast
786-0 renal = system: 786-0 renal
SK-MEL-2 melanoma = system: SK-MEL-2 melanoma
CAKI-1 renal = system: CAKI-1 renal
HCC-2998 colon = system: HCC-2998 colon
U251 CNS = system: U251 CNS
T-47D breast = system: T-47D breast
HCT-15 colon = system: HCT-15 colon
RPMI-8226 leukemia = system: RPMI-8226 leukemia
BT-549 breast = system: BT-549 breast
MCF7 breast = system: MCF7 breast
DU-145 prostate = system: DU-145 prostate
ACHN renal = system: ACHN renal
SN12C renal = system: SN12C renal

In the case of `O=C1Nc2ccccc2C1(c1c[nH]c2ccccc12)c1c[nH]c2ccccc12`, the GI50 (OVCAR-8 ovarian) is reported as 2.15 µM, the TGI (OVCAR-8 ovarian) is reported as 5.18 µM and the GI50 (CCRF-CEM leukemia) is reported as 4.43 µM. The TGI (CCRF-CEM leukemia) was 45.8 µM, the GI50 (SK-MEL-28 melanoma) was 5.7 µM and the TGI (SK-MEL-28 melanoma) was 20 µM. It also gave a GI50 (SF-539 CNS) of 2.07 µM, a TGI (SF-539 CNS) of 4.31 µM and a GI50 (A498 renal) of 1.81 µM. The TGI (A498 renal) was 3.63 µM, the GI50 (SF-295 CNS) was 2.02 µM and the TGI (SF-295 CNS) was 4.7 µM. It also gave a GI50 (RXF 393 renal) of 1.94 µM, a TGI (RXF 393 renal) of 3.76 µM and a GI50 (HOP-62 NSCLC) of 1.93 µM. It also gave a TGI (HOP-62 NSCLC) of 4.95 µM, a GI50 (NCI-H522 lung) of 2.01 µM and a TGI (NCI-H522 lung) of 4.71 µM. For the same molecule, the GI50 (OVCAR-5 ovarian) was 2.52 µM, the TGI (OVCAR-5 ovarian) was 7.6 µM and the GI50 (OVCAR-4 ovarian) was 2.48 µM. For the same molecule, the TGI (OVCAR-4 ovarian) was 7.45 µM, the GI50 (OVCAR-3 ovarian) was 2.14 µM and the TGI (OVCAR-3 ovarian) was 4.84 µM. For the same molecule, the GI50 (PC-3 prostate) was 2.05 µM, the TGI (PC-3 prostate) was 5.75 µM and the GI50 (K-562 leukemia) was 3.94 µM. For the same molecule, the TGI (K-562 leukemia) was greater than 100 µM, the GI50 (SK-OV-3 ovarian) was 2.72 µM and the TGI (SK-OV-3 ovarian) was 7.74 µM. For the same molecule, the GI50 (EKVX NSCLC) was 1.7 µM, the TGI (EKVX NSCLC) was 3.84 µM and the GI50 (M14 melanoma) was 2.39 µM. For the same molecule, the TGI (M14 melanoma) was 7.17 µM, the GI50 (SK-MEL-5 melanoma) was 2.18 µM and the TGI (SK-MEL-5 melanoma) was 4.81 µM. It also gave a GI50 (NCI-H460 lung) of 2.84 µM, a TGI (NCI-H460 lung) of 8.21 µM and a GI50 (TK-10 renal) of 2.31 µM. For the same molecule, the TGI (TK-10 renal) was 5.41 µM, the GI50 (A549 NSCLC) was 2.18 µM and the TGI (A549 NSCLC) was 5.31 µM. For the same molecule, the GI50 (KM12 colon) was 2.3 µM, the TGI (KM12 colon) was 5.96 µM and the GI50 (HCT-116 colon) was 2.48 µM. It also gave a TGI (HCT-116 colon) of 6.29 µM, a GI50 (LOX IMVI melanoma) of 1.7 µM and a TGI (LOX IMVI melanoma) of 3.32 µM. For the same molecule, the GI50 (IGROV1 ovarian) was 2.04 µM, the TGI (IGROV1 ovarian) was 5.09 µM and the GI50 (UACC-62 melanoma) was 1.96 µM. For the same molecule, the TGI (UACC-62 melanoma) was 5.09 µM, the GI50 (MDA-MB-231 breast) was 2.3 µM and the TGI (MDA-MB-231 breast) was 5.96 µM. For the same molecule, the GI50 (SF-268 CNS) was 2.8 µM, the TGI (SF-268 CNS) was 13.9 µM and the GI50 (NCI/ADR-RES ovarian) was 2.15 µM. It also gave a TGI (NCI/ADR-RES ovarian) of 5.03 µM, a GI50 (UO-31 renal) of 1.18 µM and a TGI (UO-31 renal) of 3.04 µM. The GI50 (HT29 colon) was 3.23 µM, the TGI (HT29 colon) was 11.4 µM and the GI50 (SW-620 colon) was 3.22 µM. For the same molecule, the TGI (SW-620 colon) was 13.1 µM, the GI50 (MDA-MB-435) was 3.34 µM and the TGI (MDA-MB-435) was 11.7 µM. The GI50 (HOP-92 NSCLC) was 1.87 µM, the TGI (HOP-92 NSCLC) was 4.95 µM and the GI50 (SR leukemia) was 4 µM. The TGI (SR leukemia) was greater than 100 µM, the GI50 (HL-60(TB) leukemia) was 3.72 µM and the TGI (HL-60(TB) leukemia) was 37.6 µM. It also gave a GI50 (UACC-257 melanoma) of 3.67 µM, a TGI (UACC-257 melanoma) of 16.6 µM and a GI50 (MOLT-4 leukemia) of 3.77 µM. It also gave a TGI (MOLT-4 leukemia) of 28.9 µM, a GI50 (COLO 205 colon) of 1.93 µM and a TGI (COLO 205 colon) of 3.86 µM. The GI50 (NCI-H23 lung) was 2.08 µM, the TGI (NCI-H23 lung) was 4.48 µM and the GI50 (SNB-19 CNS) was 2.73 µM. It also gave a TGI (SNB-19 CNS) of 8.35 µM, a GI50 (MALME-3M melanoma) of 2.47 µM and a TGI (MALME-3M melanoma) of 6.93 µM. For the same molecule, the GI50 (HS 578T breast) was 2.05 µM, the TGI (HS 578T breast) was 5.16 µM and the GI50 (786-0 renal) was 2.01 µM. For the same molecule, the TGI (786-0 renal) was 4.11 µM, the GI50 (SK-MEL-2 melanoma) was 2.08 µM and the TGI (SK-MEL-2 melanoma) was 4.51 µM. For the same molecule, the GI50 (CAKI-1 renal) was 1.85 µM, the TGI (CAKI-1 renal) was 4.37 µM and the GI50 (HCC-2998 colon) was 1.82 µM. For the same molecule, the TGI (HCC-2998 colon) was 3.75 µM, the GI50 (U251 CNS) was 2.69 µM and the TGI (U251 CNS) was 7.49 µM. The GI50 (T-47D breast) was 1.99 µM, the TGI (T-47D breast) was 4.69 µM and the GI50 (HCT-15 colon) was 2.57 µM. The TGI (HCT-15 colon) was 7.69 µM, the GI50 (RPMI-8226 leukemia) was 4.25 µM and the TGI (RPMI-8226 leukemia) was 38.5 µM. It also gave a GI50 (BT-549 breast) of 2.06 µM, a TGI (BT-549 breast) of 4.68 µM and a GI50 (MCF7 breast) of 2.06 µM. The TGI (MCF7 breast) was 4.74 µM, the GI50 (DU-145 prostate) was 2.09 µM and the TGI (DU-145 prostate) was 4.2 µM. It also gave a GI50 (ACHN renal) of 1.82 µM, a TGI (ACHN renal) of 3.58 µM and a GI50 (SN12C renal) of 1.89 µM. For the same molecule, the TGI (SN12C renal) was 4.29 µM.
